{"source": "ChEMBL document CHEMBL4219086", "about": "“Development of benzoxazole deoxybenzoin oxime and acyloxylamine derivatives targeting innate immune sensors and xanthine oxidase for treatment of gout” (Bioorg Med Chem, 2018)", "key": {"Toll-like receptor 4": {"target": "Toll-like receptor 4 (Homo sapiens, UniProt O00206)", "sequence (O00206 whole entry)": "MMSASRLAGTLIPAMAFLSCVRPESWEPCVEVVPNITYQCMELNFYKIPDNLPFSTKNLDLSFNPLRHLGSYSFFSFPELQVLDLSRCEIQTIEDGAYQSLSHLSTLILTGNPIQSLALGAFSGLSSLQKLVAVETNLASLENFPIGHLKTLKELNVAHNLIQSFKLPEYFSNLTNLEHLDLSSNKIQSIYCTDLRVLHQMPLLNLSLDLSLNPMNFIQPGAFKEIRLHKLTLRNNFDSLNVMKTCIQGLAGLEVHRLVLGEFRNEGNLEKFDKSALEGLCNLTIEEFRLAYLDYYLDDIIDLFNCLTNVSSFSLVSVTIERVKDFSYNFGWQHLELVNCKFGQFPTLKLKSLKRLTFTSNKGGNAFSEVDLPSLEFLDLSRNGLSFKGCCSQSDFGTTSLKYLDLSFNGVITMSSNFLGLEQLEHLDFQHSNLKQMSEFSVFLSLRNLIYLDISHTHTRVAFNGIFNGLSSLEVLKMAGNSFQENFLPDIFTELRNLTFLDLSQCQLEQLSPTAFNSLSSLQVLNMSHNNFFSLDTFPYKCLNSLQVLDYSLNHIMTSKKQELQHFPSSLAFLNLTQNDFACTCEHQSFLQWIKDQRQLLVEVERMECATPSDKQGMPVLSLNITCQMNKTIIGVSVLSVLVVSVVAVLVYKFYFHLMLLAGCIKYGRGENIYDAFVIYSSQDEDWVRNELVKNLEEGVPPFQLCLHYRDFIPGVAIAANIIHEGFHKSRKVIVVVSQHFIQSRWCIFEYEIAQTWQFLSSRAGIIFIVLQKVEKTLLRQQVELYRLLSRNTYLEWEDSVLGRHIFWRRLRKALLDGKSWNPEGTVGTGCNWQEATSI", "assay": "Inhibition of human TLR4 signaling expressed in HEK-Blue cells co-expressing MD2/CD14 assessed as reduction in LPS-induced NF-kappaB activation-mediated SEAP production preincubated for 2 hrs followed by LPS stimulation for 20 hrs by colorimetric assay", "assay_type": "cell-based"}, "Rattus norvegicus [1]": {"test_system": "Rattus norvegicus", "assay": "(§1) Antiarthritic activity in MSU-induced acute gouty arthritis Sprague-Dawley rat model assessed as reduction in ankle swelling by measuring perimeter of ankle at 2.5 mg/kg, po qd pretreated via gavage for 5 days followed by MSU treatment at 1 hr post last dose measured immediately (reference value: 2.64 +/- 0.81 cm)", "assay_type": "functional"}, "Mus musculus [2]": {"test_system": "Mus musculus", "assay": "Hypouricemic effect in Kunming mouse assessed as inhibition of hepatic XOD activity at 2.5 mg/kg, po measured after 1 hr relative to control", "assay_type": "organism-based"}, "Rattus norvegicus [3]": {"test_system": "Rattus norvegicus", "assay": "Inhibition of MSU-induced TNFalpha level in synovial homogenate of acute gouty arthritis Sprague-Dawley rat model at 2.5 to 10 mg/kg, po qd pretreated via gavage for 5 days followed by MSU treatment at 1 hr post last dose measured up to 24 hrs by ELISA", "assay_type": "functional, organism-based"}, "Mus musculus [4]": {"test_system": "Mus musculus", "assay": "Hypouricemic effect in Kunming mouse assessed as inhibition of hepatic XOD activity at 5 mg/kg, po measured after 1 hr relative to control", "assay_type": "organism-based"}, "Mus musculus [5]": {"test_system": "Mus musculus", "assay": "Hypouricemic effect in Kunming mouse assessed as inhibition of hepatic XOD activity at 10 mg/kg, po measured after 1 hr relative to control", "assay_type": "organism-based"}, "Rattus norvegicus [6]": {"test_system": "Rattus norvegicus", "assay": "Inhibition of MSU-induced MyD88 protein level in synovial homogenate of acute gouty arthritis Sprague-Dawley rat model at 2.5 to 10 mg/kg, po qd pretreated via gavage for 5 days followed by MSU treatment at 1 hr post last dose measured up to 24 hrs by Western blot method", "assay_type": "functional, organism-based"}, "Rattus norvegicus [7]": {"test_system": "Rattus norvegicus", "assay": "as §1, with “after 12 hrs” for “immediately”, “3.51” for “2.64”, “0.52” for “0.81”", "assay_type": "functional"}, "Rattus norvegicus [8]": {"test_system": "Rattus norvegicus", "assay": "Inhibition of MSU-induced TNFalpha level in serum of acute gouty arthritis Sprague-Dawley rat model at 2.5 to 10 mg/kg, po qd pretreated via gavage for 5 days followed by MSU treatment at 1 hr post last dose measured up to 24 hrs by ELISA", "assay_type": "functional, organism-based"}, "Rattus norvegicus [9]": {"test_system": "Rattus norvegicus", "assay": "as §1, with “5” for “2.5”, “after 8 hrs” for “immediately”, “3.27” for “2.64”, “0.56” for “0.81”", "assay_type": "functional"}, "Rattus norvegicus [10]": {"test_system": "Rattus norvegicus", "assay": "Inhibition of MSU-induced IL-1beta level in serum of acute gouty arthritis Sprague-Dawley rat model at 2.5 to 10 mg/kg, po qd pretreated via gavage for 5 days followed by MSU treatment at 1 hr post last dose measured up to 24 hrs by ELISA", "assay_type": "functional, organism-based"}, "Rattus norvegicus [11]": {"test_system": "Rattus norvegicus", "assay": "Inhibition of MSU-induced TLR4 protein level in synovial homogenate of acute gouty arthritis Sprague-Dawley rat model at 2.5 to 10 mg/kg, po qd pretreated via gavage for 5 days followed by MSU treatment at 1 hr post last dose measured up to 24 hrs by Western blot method", "assay_type": "functional, organism-based"}, "Mus musculus [12]": {"test_system": "Mus musculus", "assay": "In vivo inhibition of XOD activity in liver of Kunming mouse model of potassium oxonate-induced hyperuricemia at 5 mg/kg, po treated 1 hr post potassium oxonate addition measured after 1 hr relative to control", "assay_type": "functional"}, "Rattus norvegicus [13]": {"test_system": "Rattus norvegicus", "assay": "as §1, with “5” for “2.5”, “after 2 hrs” for “immediately”, “2.82” for “2.64”, “0.75” for “0.81”", "assay_type": "functional"}, "Mus musculus [14]": {"test_system": "Mus musculus", "assay": "In vivo inhibition of XOD activity in liver of Kunming mouse model of potassium oxonate-induced hyperuricemia at 2.5 mg/kg, po treated 1 hr post potassium oxonate addition measured after 1 hr relative to control", "assay_type": "functional"}, "Rattus norvegicus [15]": {"test_system": "Rattus norvegicus", "assay": "as §1, with “5” for “2.5”, “after 12 hrs” for “immediately”, “3.51” for “2.64”, “0.52” for “0.81”", "assay_type": "functional"}, "Mus musculus [16]": {"test_system": "Mus musculus", "assay": "In vivo inhibition of XOD activity in liver of Kunming mouse model of potassium oxonate-induced hyperuricemia administered po 1 hr post potassium oxonate addition measured after 1 hr", "assay_type": "functional, organism-based"}, "Rattus norvegicus [17]": {"test_system": "Rattus norvegicus", "assay": "as §1, with “5” for “2.5”, “after 24 hrs” for “immediately”, “3.35” for “2.64”, “0.5” for “0.81”", "assay_type": "functional"}, "Rattus norvegicus [18]": {"test_system": "Rattus norvegicus", "assay": "as §1, with “10” for “2.5”, “after 8 hrs” for “immediately”, “3.27” for “2.64”, “0.56” for “0.81”", "assay_type": "functional"}, "Mus musculus [19]": {"test_system": "Mus musculus", "assay": "In vivo inhibition of XOD activity in liver of Kunming mouse model of potassium oxonate-induced hyperuricemia at 10 mg/kg, po treated 1 hr post potassium oxonate addition measured after 1 hr relative to control", "assay_type": "functional"}, "Rattus norvegicus [20]": {"test_system": "Rattus norvegicus", "assay": "Inhibition of MSU-induced p65 NFkappaB protein level in synovial homogenate of acute gouty arthritis Sprague-Dawley rat model at 2.5 to 10 mg/kg, po qd pretreated via gavage for 5 days followed by MSU treatment at 1 hr post last dose measured up to 24 hrs by Western blot method", "assay_type": "functional, organism-based"}, "Rattus norvegicus [21]": {"test_system": "Rattus norvegicus", "assay": "as §1, with “after 4 hrs” for “immediately”, “3.18” for “2.64”, “0.64” for “0.81”", "assay_type": "functional"}, "Rattus norvegicus [22]": {"test_system": "Rattus norvegicus", "assay": "as §1, with “10” for “2.5”, “after 12 hrs” for “immediately”, “3.51” for “2.64”, “0.52” for “0.81”", "assay_type": "functional"}, "[23]": {"target": "Xanthine dehydrogenase/oxidase (Homo sapiens, UniProt P47989)", "sequence (P47989 whole entry)": "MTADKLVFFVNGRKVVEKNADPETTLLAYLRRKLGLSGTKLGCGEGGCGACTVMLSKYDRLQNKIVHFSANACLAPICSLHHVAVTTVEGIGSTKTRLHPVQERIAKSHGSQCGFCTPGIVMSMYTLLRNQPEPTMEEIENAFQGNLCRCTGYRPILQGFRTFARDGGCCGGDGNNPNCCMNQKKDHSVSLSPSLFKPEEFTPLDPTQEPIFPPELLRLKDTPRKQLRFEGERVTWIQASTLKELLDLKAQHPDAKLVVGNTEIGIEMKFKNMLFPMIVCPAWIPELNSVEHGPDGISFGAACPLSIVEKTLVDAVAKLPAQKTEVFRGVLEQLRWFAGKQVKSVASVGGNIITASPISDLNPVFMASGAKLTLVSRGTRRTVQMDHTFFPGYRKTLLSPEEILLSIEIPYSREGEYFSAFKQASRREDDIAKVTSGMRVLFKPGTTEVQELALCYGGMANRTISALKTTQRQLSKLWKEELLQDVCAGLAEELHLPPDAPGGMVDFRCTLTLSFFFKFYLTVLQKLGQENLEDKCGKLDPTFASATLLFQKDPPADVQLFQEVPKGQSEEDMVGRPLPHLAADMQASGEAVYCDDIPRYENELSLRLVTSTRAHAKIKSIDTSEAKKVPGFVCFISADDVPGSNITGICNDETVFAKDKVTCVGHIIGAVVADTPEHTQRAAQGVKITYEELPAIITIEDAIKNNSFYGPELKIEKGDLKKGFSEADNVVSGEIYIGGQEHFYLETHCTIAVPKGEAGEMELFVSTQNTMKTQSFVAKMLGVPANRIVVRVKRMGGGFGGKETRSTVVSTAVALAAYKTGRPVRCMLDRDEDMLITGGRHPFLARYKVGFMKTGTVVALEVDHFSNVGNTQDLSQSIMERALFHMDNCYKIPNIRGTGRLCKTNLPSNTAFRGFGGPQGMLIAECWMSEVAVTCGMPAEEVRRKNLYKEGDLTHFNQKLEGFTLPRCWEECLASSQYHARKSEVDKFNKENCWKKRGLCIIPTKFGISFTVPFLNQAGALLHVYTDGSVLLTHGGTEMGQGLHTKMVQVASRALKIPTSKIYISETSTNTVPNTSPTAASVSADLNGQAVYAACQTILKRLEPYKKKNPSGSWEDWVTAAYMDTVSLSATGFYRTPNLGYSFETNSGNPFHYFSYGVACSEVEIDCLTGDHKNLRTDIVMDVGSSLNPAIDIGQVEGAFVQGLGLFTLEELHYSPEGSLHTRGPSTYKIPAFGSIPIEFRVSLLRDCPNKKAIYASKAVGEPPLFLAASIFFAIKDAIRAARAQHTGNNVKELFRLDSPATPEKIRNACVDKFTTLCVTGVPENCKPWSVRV", "assay": "Inhibition of Xanthine oxidase (unknown origin) using xanthine as substrate preincubated for 1 to 5 mins followed by substrate addition"}, "Rattus norvegicus [24]": {"test_system": "Rattus norvegicus", "assay": "Inhibition of MSU-induced phosphorylated IkappaB protein level in synovial homogenate of acute gouty arthritis Sprague-Dawley rat model at 2.5 to 10 mg/kg, po qd pretreated via gavage for 5 days followed by MSU treatment at 1 hr post last dose measured up to 24 hrs by Western blot method", "assay_type": "functional, organism-based"}, "Rattus norvegicus [25]": {"test_system": "Rattus norvegicus", "assay": "as §1, with “after 24 hrs” for “immediately”, “3.35” for “2.64”, “0.5” for “0.81”", "assay_type": "functional"}, "Rattus norvegicus [26]": {"test_system": "Rattus norvegicus", "assay": "as §1, with “10” for “2.5”, “after 4 hrs” for “immediately”, “3.18” for “2.64”, “0.64” for “0.81”", "assay_type": "functional"}, "Rattus norvegicus [27]": {"test_system": "Rattus norvegicus", "assay": "Inhibition of MSU-induced ASC protein level in synovial homogenate of acute gouty arthritis Sprague-Dawley rat model at 2.5 to 10 mg/kg, po qd pretreated via gavage for 5 days followed by MSU treatment at 1 hr post last dose measured up to 24 hrs by Western blot method", "assay_type": "functional, organism-based"}, "Rattus norvegicus [28]": {"test_system": "Rattus norvegicus", "assay": "Inhibition of MSU-induced NLRP3 protein level in synovial homogenate of acute gouty arthritis Sprague-Dawley rat model at 2.5 to 10 mg/kg, po qd pretreated via gavage for 5 days followed by MSU treatment at 1 hr post last dose measured up to 24 hrs by Western blot method", "assay_type": "functional, organism-based"}, "Rattus norvegicus [29]": {"test_system": "Rattus norvegicus", "assay": "Antiarthritic activity in po dosed MSU-induced acute gouty arthritis Sprague-Dawley rat model assessed as reduction in ankle swelling pretreated qd via gavage for 5 days followed by MSU treatment at 1 hr post last dose measured after 24 hrs", "assay_type": "functional, organism-based"}}, "note": "Calls of active or inactive are those of the source. The rule behind the calls is not given here.", "data": [{"smiles": "COc1ccc(C/C(=N\\O)c2nc3ccc(OC)cc3o2)cc1", "values": [{"measurement": "IC50", "setting": "Toll-like receptor 4", "result": 0.54, "unit": "µM"}, {"measurement": "Activity", "setting": "Rattus norvegicus [1]", "result": 2.65, "unit": "cm"}, {"measurement": "inhibition at 2.5 mg/kg", "setting": "Mus musculus [2]", "result": 3.7, "unit": "%"}, {"measurement": "inhibition", "setting": "Rattus norvegicus [3]", "result": "Active"}, {"measurement": "inhibition at 5 mg/kg", "setting": "Mus musculus [4]", "result": 6.8, "unit": "%"}, {"measurement": "inhibition at 10 mg/kg", "setting": "Mus musculus [5]", "result": 10.2, "unit": "%"}, {"measurement": "inhibition", "setting": "Rattus norvegicus [6]", "result": "Active"}, {"measurement": "Activity", "setting": "Rattus norvegicus [7]", "result": 3.14, "unit": "cm"}, {"measurement": "inhibition", "setting": "Rattus norvegicus [8]", "result": "Active"}, {"measurement": "Activity", "setting": "Rattus norvegicus [9]", "result": 2.88, "unit": "cm"}, {"measurement": "inhibition", "setting": "Rattus norvegicus [10]", "result": "Active"}, {"measurement": "inhibition", "setting": "Rattus norvegicus [11]", "result": "Active"}, {"measurement": "inhibition in vivo at 5 mg/kg", "setting": "Mus musculus [12]", "result": 35.8, "unit": "%"}, {"measurement": "Activity", "setting": "Rattus norvegicus [13]", "result": 2.56, "unit": "cm"}, {"measurement": "inhibition in vivo at 2.5 mg/kg", "setting": "Mus musculus [14]", "result": 19.2, "unit": "%"}, {"measurement": "Activity", "setting": "Rattus norvegicus [15]", "result": 2.99, "unit": "cm"}, {"measurement": "inhibition", "setting": "Mus musculus [16]", "result": "Dose-dependent effect"}, {"measurement": "Activity", "setting": "Rattus norvegicus [17]", "result": 2.8, "unit": "cm"}, {"measurement": "Activity", "setting": "Rattus norvegicus [18]", "result": 2.72, "unit": "cm"}, {"measurement": "inhibition in vivo at 10 mg/kg", "setting": "Mus musculus [19]", "result": 41.9, "unit": "%"}, {"measurement": "inhibition", "setting": "Rattus norvegicus [20]", "result": "Active"}, {"measurement": "Activity", "setting": "Rattus norvegicus [21]", "result": 2.95, "unit": "cm"}, {"measurement": "Activity", "setting": "Rattus norvegicus [22]", "result": 2.7, "unit": "cm"}, {"measurement": "IC50", "setting": "[23]", "result": 3.7, "unit": "µM"}, {"measurement": "inhibition", "setting": "Rattus norvegicus [24]", "result": "Active"}, {"measurement": "Activity", "setting": "Rattus norvegicus [25]", "result": 2.97, "unit": "cm"}, {"measurement": "Activity", "setting": "Rattus norvegicus [26]", "result": 2.79, "unit": "cm"}, {"measurement": "inhibition", "setting": "Rattus norvegicus [27]", "result": "Active"}, {"measurement": "inhibition", "setting": "Rattus norvegicus [28]", "result": "Active"}, {"measurement": "Activity", "setting": "Rattus norvegicus [29]", "result": "Dose-dependent effect"}]}]}
